According to patent US20220017566A1, “TERPINOID DERIVATIVES AND USES THEREOF” (SICHUAN HAISCO PHARMACEUTICAL CO., LTD., priority 2018, published 2022):
Where two headings read alike, the source gives them in different places.

Columns and labels:
[1] = tested on: IFNγ-induced NO production in Raw 264.7 cells; assay: Nitric oxide assay: suppression of IFNγ-induced NO production (Griess nitrite, adjusted to live cell numbers); type: cell-based; settings: Mus musculus, RAW264.7, 2 h pretreatment, IFNγ 10 ng/ml for 24 hours
Description: Raw 264.7 cells were seeded in 96-well plates at a density of 30, 000 cells per well in DMEM+10% FBS and incubated overnight. The next day, cell media was replaced by DMEM+2% FBS. Cells were pretreated with DMSO or test compounds (top dose 100 nM, 1:4 serial dilution, 10-point) for 2 hours and then treated with recombinant mouse IFNγ (R&D, Cat# 485-MI-100) at a final concentration of 10 ng/ml for 24 hours. Nitrite levels were measured in culture media as a surrogate for nitric oxide using the Griess Reagent System (Promega, Cat# G2930). Cell viability was determined using CellTiter Glo reagents (Promega, Cat#G7572). The nitrite levels were adjusted to live cell numbers and inhibition percentage was calculated. The inhibition percentage was then plotted against compound concentration, and IC50 values were calculated using four-parameter algorithm in Graphpad Prism.

CYP1A2 = biological target: T1, CYP1A2 (Homo sapiens, UniProt P05177); assay: CYP450 enzyme inhibition in liver microsomes (cocktail probe incubation); type: in vitro ADME; settings: species not given, 0.05-50 μM tested
T1 construct: studied in liver microsomes of CD-1 mouse, Sprague Dawley rat, Beagle dog, cynomolgus monkey, and human; from tissue; host or cells: liver microsomes
T1 sequence (P05177 1-516): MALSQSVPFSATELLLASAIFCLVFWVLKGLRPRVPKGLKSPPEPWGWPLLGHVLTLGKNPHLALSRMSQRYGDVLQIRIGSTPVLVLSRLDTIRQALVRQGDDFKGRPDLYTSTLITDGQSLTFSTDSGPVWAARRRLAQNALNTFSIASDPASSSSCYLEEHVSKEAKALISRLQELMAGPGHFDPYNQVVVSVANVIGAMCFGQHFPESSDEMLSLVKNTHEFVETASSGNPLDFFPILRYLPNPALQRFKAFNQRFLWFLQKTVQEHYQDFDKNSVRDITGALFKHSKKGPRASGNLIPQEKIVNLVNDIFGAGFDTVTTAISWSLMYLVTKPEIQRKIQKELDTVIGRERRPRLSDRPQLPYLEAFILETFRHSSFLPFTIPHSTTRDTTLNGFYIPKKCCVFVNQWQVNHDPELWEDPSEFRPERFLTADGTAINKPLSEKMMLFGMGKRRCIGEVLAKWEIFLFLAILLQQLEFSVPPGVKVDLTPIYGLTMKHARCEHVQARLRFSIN
Description: (§1) The inhibition potential of test compounds towards major drug metabolizing CYP450 enzymes was studied in liver microsomes of CD-1 mouse, Sprague Dawley rat, Beagle dog, cynomolgus monkey, and human. The inhibition of CYP1A2, CYP2C9, CYP2C19, CYP2D6, and CYP3A4 was assessed using CYP450 specific probe reactions in a cocktail incubation. Seven concentrations of test compounds (0.05, 0.15, 0.5, 1.5, 5, 15, and 50 μM) were evaluated. In addition, known inhibitors for each probe reaction were included as positive controls and incubated at a single concentration above their respective IC50.

CYP2C19 = biological target: T2, CYP2C19 (Homo sapiens, UniProt P33261); assay: as above; type: in vitro ADME; settings: species not given, 0.05-50 μM tested
T2 construct: studied in liver microsomes of CD-1 mouse, Sprague Dawley rat, Beagle dog, cynomolgus monkey, and human; from tissue; host or cells: liver microsomes
T2 sequence (P33261 whole entry): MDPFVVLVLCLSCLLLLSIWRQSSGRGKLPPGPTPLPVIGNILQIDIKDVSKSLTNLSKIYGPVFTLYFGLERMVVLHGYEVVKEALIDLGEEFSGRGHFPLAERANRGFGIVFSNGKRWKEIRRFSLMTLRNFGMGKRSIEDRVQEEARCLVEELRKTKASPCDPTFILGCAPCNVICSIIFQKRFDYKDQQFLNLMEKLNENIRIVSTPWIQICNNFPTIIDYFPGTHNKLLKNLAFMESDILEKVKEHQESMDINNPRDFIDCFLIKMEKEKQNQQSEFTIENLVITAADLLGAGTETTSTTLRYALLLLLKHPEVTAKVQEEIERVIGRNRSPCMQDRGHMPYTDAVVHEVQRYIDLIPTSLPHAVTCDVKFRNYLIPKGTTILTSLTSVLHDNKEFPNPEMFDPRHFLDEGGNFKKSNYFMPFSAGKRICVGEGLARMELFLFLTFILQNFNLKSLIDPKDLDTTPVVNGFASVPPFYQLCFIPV
Description: as §1

CYP2C9 = biological target: T3, CYP2C9 (Homo sapiens, UniProt P11712); assay: as above; type: in vitro ADME; settings: species not given, 0.05-50 μM tested
T3 construct: studied in liver microsomes of CD-1 mouse, Sprague Dawley rat, Beagle dog, cynomolgus monkey, and human; from tissue; host or cells: liver microsomes
T3 sequence (P11712 whole entry): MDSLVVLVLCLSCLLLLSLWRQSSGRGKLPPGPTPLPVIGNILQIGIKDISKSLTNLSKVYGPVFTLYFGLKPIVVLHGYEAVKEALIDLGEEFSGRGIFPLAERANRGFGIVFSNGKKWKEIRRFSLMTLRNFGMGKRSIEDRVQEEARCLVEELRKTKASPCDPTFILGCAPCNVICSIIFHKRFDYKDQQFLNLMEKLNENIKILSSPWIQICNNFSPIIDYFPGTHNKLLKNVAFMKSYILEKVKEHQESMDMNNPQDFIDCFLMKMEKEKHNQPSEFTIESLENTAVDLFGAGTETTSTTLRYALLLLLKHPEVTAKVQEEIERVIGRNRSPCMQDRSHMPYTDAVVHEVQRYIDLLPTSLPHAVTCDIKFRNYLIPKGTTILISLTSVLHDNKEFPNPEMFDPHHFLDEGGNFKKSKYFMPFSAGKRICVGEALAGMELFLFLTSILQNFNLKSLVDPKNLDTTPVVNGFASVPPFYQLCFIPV
Description: as §1

CYP2D6 = biological target: T4, CYP2D6 (Homo sapiens, UniProt P10635); assay: as above; type: in vitro ADME; settings: species not given, 0.05-50 μM tested
T4 construct: studied in liver microsomes of CD-1 mouse, Sprague Dawley rat, Beagle dog, cynomolgus monkey, and human; from tissue; host or cells: liver microsomes
T4 sequence (P10635 whole entry): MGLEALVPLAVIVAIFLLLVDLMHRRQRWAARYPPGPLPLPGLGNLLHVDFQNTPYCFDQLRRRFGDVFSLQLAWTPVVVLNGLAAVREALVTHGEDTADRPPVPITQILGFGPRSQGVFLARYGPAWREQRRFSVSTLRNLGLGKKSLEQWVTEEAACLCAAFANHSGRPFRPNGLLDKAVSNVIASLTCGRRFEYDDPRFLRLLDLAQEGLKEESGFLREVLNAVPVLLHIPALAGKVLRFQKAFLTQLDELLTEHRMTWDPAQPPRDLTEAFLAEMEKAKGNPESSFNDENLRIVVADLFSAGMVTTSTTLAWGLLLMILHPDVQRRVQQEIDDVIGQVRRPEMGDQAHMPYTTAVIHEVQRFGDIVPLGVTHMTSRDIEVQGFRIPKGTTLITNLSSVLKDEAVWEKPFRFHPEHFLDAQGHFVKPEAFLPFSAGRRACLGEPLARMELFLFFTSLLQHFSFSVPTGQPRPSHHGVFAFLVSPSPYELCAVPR
Description: as §1

CYP3A4 = biological target: T5, CYP3A4 (Homo sapiens, UniProt P08684); assay: as above; type: in vitro ADME; settings: species not given, 0.05-50 μM tested
T5 construct: studied in liver microsomes of CD-1 mouse, Sprague Dawley rat, Beagle dog, cynomolgus monkey, and human; from tissue; host or cells: liver microsomes
T5 sequence (P08684 whole entry): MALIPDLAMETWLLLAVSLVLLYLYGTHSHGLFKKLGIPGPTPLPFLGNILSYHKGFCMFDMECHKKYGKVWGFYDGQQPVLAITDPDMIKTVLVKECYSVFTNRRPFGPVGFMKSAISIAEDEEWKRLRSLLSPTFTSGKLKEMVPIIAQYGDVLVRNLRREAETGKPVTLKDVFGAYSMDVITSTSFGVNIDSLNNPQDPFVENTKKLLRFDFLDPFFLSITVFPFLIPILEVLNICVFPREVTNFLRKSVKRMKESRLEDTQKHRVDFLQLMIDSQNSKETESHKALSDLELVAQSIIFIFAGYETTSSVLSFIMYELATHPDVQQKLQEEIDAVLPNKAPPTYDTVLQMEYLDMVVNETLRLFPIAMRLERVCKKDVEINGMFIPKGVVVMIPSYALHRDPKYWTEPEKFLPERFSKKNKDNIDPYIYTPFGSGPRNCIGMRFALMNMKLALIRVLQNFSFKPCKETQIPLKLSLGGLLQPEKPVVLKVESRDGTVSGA
Description: as §1

[2] = Pharmacokinetic studies in Sprague Dawley rats (oral gavage and IV); type: in vivo; settings: rat, male SD rats, plasma; for AUC(0-t): read-out: AUC0-24 h; for bioavailability: oral 5 mg/kg vs IV 1 mg/kg, read-out: Bioavailibility F %
Description: The pharmacokinetics of test compounds was evaluated in male SD rats when administered via oral gavage and IV injection. For oral dosing, compound was formulated in 0.5% methylcellulose and administered at doses of 5 mg/kg (3 rats per dose level) and volume of 10 mL/kg. For IV dosing, compound was formulated in 5% DMSO/5% Solutol/90% saline and administered to 3 rats at a dose of 1 mg/kg and a volume of 5 mL/kg. The rats were fasted overnight before administration. Plasma samples were collected predose and at 0.5, 1, 3, 6, 9, 12, and 24 hours postdose. The samples were analyzed by LC/MS/MS and the concentration of test compound at each timepoint was determined by linear regression. Pharmacokinetic parameters were calculated from the plasma concentrations using Pheonix WinNonlin.

[3] = Metabolic stability in human liver microsomes; type: in vitro ADME
Description: (§2) The metabolic stability of test compounds was examined in CD-1 mouse, Sprague Dawley rat, Beagle dog, cynomolgus monkey, and human liver microsomes. Test compound (final concentration 1 μM) was mixed with diluted liver microsomes from each of the 5 species and a small aliquot was taken at 0, 5, 10, 20, 30, and 60 minutes for LC/MS/MS analysis. Intrinsic clearance and half-life were calculated.

[4] = Metabolic stability in rat liver microsomes; type: in vitro ADME; settings: Sprague Dawley
Description: as §2

[5] = Metabolic stability in mouse liver microsomes; type: in vitro ADME, CD-1 mouse; settings: CD-1
Description: as §2

[6] = Metabolic stability in dog liver microsomes; type: in vitro ADME; settings: Beagle
Description: as §2

[7] = Metabolic stability in monkey liver microsomes; type: in vitro ADME, cynomolgus monkey
Description: as §2

Compound | IC50 [1] | IC50 (CYP1A2) | IC50 (CYP2C19) | IC50 (CYP2C9) | IC50 (CYP2D6) | IC50 (CYP3A4) | C0 ([2]; IV (1 mg/kg)) | clearance ([2]; IV (1 mg/kg)) | half-life ([2]; IV (1 mg/kg)) | AUC(0-t) ([2]; IV (1 mg/kg)) | Cmax ([2]; Oral (5 mg/kg)) | half-life ([2]; Oral (5 mg/kg)) | AUC(0-t) ([2]; Oral (5 mg/kg)) | bioavailability [2] | further results
CC1(C)C(=O)C(C#N)=C[C@]2(C)C3=CC(=O)[C@@H]4[C@@H]5C[C@@](C)(N6C(=O)CCC6=O)CC[C@]5(C)CC[C@@]4(C)[C@]3(C)CC[C@@H]12 [Example 18, (4aR,6aS,6bR,8aS,11S,12aS,12bR,14bS)-11-(2,5-dioxopyrrolidin-1-yl)-4,4,6a,6b,8a,11,14b-heptamethyl-3,13-dioxo-3,4,4a,5,6,6a,6b,7,8,8a,9,10,11,12,12a,12b,13,14b-octadecahydropicene-2-carbonitrile] | < 0.01 µM | > 50 µM | 19.6 µM | 4.7 µM | > 50 µM | 2.1 µM | 472 ng/mL | 62.5 mL/min/kg | 1.4 h | 267 ng·h/mL | 50 ng/mL | 2.3 h | 181 ng·h/mL | 13.6% | –
CC1(C)C(=O)C(C#N)=C[C@]2(C)C3=CC(=O)[C@@H]4[C@@H]5C[C@@](C)(c6nnc(C(=O)NC7CC7)o6)CC[C@]5(C)CC[C@@]4(C)[C@]3(C)CC[C@@H]12 [Example 19, 5-((2S,4aS,6aR,6bS,8aR,12aS,14aR,14bS)-11-cyano-2,4a,6a,6b,9,9,12a-heptamethyl-10,14-dioxo-1,2,3,4,4a,5,6,6a,6b,7,8,8a,9,10,12a,14,14a,14b-octadecahydropicen-2-yl)-N-cyclopropyl-1,3,4-oxadiazole-2-carboxamide] | < 0.01 µM | > 50 µM | 5.8 µM | 1.2 µM | 8.4 µM | 2.1 µM | 703 ng/mL | 32.5 mL/min/kg | 1.8 h | 496 ng·h/mL | 63 ng/mL | 4.5 h | 364 ng·h/mL | 14.7% | –
CC1(C)C(=O)C(C#N)=C[C@]2(C)C3=CC(=O)[C@@H]4[C@@H]5C[C@@](C)(N6CCOC6=O)CC[C@]5(C)CC[C@@]4(C)[C@]3(C)CC[C@@H]12 [Example 13, (4aR,6aS,6bR,8aS,11S,12aS,12bR,14bS)-4,4,6a,6b,8a,11,14b-heptamethyl-3,13-dioxo-11-(2-oxooxazolidin-3-yl)-3,4,4a,5,6,6a,6b,7,8,8a,9,10,11,12,12a,12b,13,14b-octadecahydropicene-2-carbonitrile] | < 0.01 µM | > 50 µM | 11.7 µM | 1.9 µM | > 50 µM | 1.9 µM | 355 ng/mL | 78.9 mL/min/kg | 2.2 h | 206 ng·h/mL | 45 ng/mL | 2.1 h | 197 ng·h/mL | 19.2% | –
CC1(C)C(=O)C(C#N)=C[C@]2(C)C3=CC(=O)[C@@H]4[C@@H]5C[C@@](C)(Cc6nnco6)CC[C@]5(C)CC[C@@]4(C)[C@]3(C)CC[C@@H]12 [Example 14, (4aR,6aS,6bR,8aR,11S,12aS,12bR,14bS)-11-((1,3,4-oxadiazol-2-yl)methyl)-4,4,6a,6b,8a,11,14b-heptamethyl-3,13-dioxo-3,4,4a,5,6,6a,6b,7,8,8a,9,10,11,12,12a,12b,13,14b-octadecahydropicene-2-carbonitrile] | < 0.01 µM | > 50 µM | 6.2 µM | 3 µM | 10.3 µM | 1 µM | – | – | – | – | – | – | – | – | CLint scaled at 1 μM [3]: 87.9 mL/min/kg; half-life at 1 μM [3]: 0.237 h; CLint scaled at 1 μM [4]: 695 mL/min/kg; half-life at 1 μM [4]: 3.6 min; CLint scaled at 1 μM [5]: 1460 mL/min/kg; half-life at 1 μM [5]: 3.8 min; CLint scaled at 1 μM [6]: 228 mL/min/kg; half-life at 1 μM [6]: 8.8 min; CLint scaled at 1 μM [7]: 602 mL/min/kg; half-life at 1 μM [7]: 3.1 min
CC1(C)C(=O)C(C#N)=C[C@]2(C)C3=CC(=O)[C@@H]4[C@@H]5C[C@@](C)(N6CCCC6=O)CC[C@]5(C)CC[C@@]4(C)[C@]3(C)CC[C@@H]12 [Example 12, (4aR,6aS,6bR,8aS,11S,12aS,12bR,14bS)-4,4,6a,6b,8a,11,14b-heptamethyl-3,13-dioxo-11-(2-oxopyrrolidin-1-yl)-3,4,4a,5,6,6a,6b,7,8,8a,9,10,11,12,12a,12b,13,14b-octadecahydropicene-2-carbonitrile] | < 0.01 µM | > 50 µM | 9.7 µM | 2.7 µM | > 50 µM | 2.8 µM | 359 ng/mL | 85.7 mL/min/kg | 1.7 h | 191 ng·h/mL | 29 ng/mL | 4.1 h | 94 ng·h/mL | 9.9% | –
Cc1noc([C@@]2(C)CC[C@]3(C)CC[C@]4(C)[C@H](C(=O)C=C5[C@@]6(C)C=C(C#N)C(=O)C(C)(C)[C@@H]6CC[C@]54C)[C@@H]3C2)n1 [Example 15, (4aR,6aS,6bR,8aS,11S,12aS,12bR,14bS)-4,4,6a,6b,8a,11,14b-heptamethyl-11-(3-methyl-1,2,4-oxadiazol-5-yl)-3,13-dioxo-3,4,4a,5,6,6a,6b,7,8,8a,9,10,11,12,12a,12b,13,14b-octadecahydropicene-2-carbonitrile] | < 0.01 µM | > 50 µM | 13.6 µM | 2.6 µM | 36.2 µM | 1.6 µM | 380 ng/mL | 47 mL/min/kg | 2.8 h | 329 ng·h/mL | 89 ng/mL | 1.7 h | 412 ng·h/mL | 25% | –
